Reference: a compilation of properties of binary mixtures (doi:10.1016/j.molliq.2020.113163)

Assay: xn = mol fraction of the nth substance listed
Conditions: 101 kPa, x1 = 0.8

**Q.** For `C1CCC2=NCCCN2CC1` + O=S(=O)([N-]S(=O)(=O)C(F)(F)F)C(F)(F)F.[Li+], which electrical conductivity (338.15 K) is on record?
**A.** 0.0047 S/m

**Q.** What about the viscosity (338.15 K) of the same molecule?
**A.** 977 mPa·s

**Q.** And the electrical conductivity (358.15 K)?
**A.** 0.0256 S/m

**Q.** And the viscosity (358.15 K)?
**A.** 160.9 mPa·s

**Q.** What about the electrical conductivity (368.15 K) of the same molecule?
**A.** 0.0438 S/m

**Q.** What about the viscosity (368.15 K) of the same molecule?
**A.** 82.4 mPa·s

**Q.** What does the source list for `C1CN=C2CCCN2C1` + O=S(=O)([N-]S(=O)(=O)C(F)(F)F)C(F)(F)F.[Li+]?
**A.** electrical conductivity (328.15 K): 0.0252 S/m; viscosity (328.15 K): 566 mPa·s; electrical conductivity (348.15 K): 0.0633 S/m; viscosity (348.15 K): 116.3 mPa·s; electrical conductivity (358.15 K): 0.0966 S/m; viscosity (358.15 K): 63.5 mPa·s
